Experimental data published in the NIST ThermoML archive (doi:10.1021/je050333h).

Assays:
[1] = 101 kPa, Liquid; for speed of sound: Sing-around technique in a fixed-path interferometer
[2] = cn = amount concentration of the nth substance listed, in mol/dm3; details: 101 kPa, Liquid, c2 = 0; for speed of sound: Sing-around technique in a fixed-path interferometer

CC(C)CC(C)(C)C [2,2,4-trimethylpentane]
[1]
Details	kinematic viscosity [m2/s]	mass density [kg/m3]	speed of sound [m/s]
293.15 K	7.33e-07	690.6	1103.2
298.15 K	6.97e-07	686.3	1082.2
303.15 K	6.63e-07	680.84	1061.3
313.15 K	6.02e-07	673.37	1020.1
323.15 K	5.49e-07	664.65	979.5

CC(C)CC(C)(C)C [2,2,4-trimethylpentane] + CCCCC(CC)COC(=O)CC(C(=O)OCC(CC)CCCC)S(=O)(=O)[O-].[Na+]
[2]
Details	kinematic viscosity [m2/s]	mass density [kg/m3]	speed of sound [m/s]
293.15 K	7.33e-07	690.6	1103.2
298.15 K	6.97e-07	686.3	1082.2
303.15 K	6.63e-07	680.84	1061.3
313.15 K	6.02e-07	673.37	1020.1
323.15 K	5.49e-07	664.65	979.5
